Assay results published in a melting point compilation (Tetko et al.; mined from patent text by program, amines drawn as free bases though some values may be those of a salt).

melting point [°C]	SMILES
262 to 264	COc1cc2[nH]c(=O)n(CC(C)S)c(=O)c2cc1OC (configuration not stated)
108 to 109	CN1CC(CCN2CCN(c3ccccn3)CC2)OC1=O (configuration not stated)
228 to 230	CCOC(=O)c1nnc(N2CCN(c3ccc(N4CC(CNC(C)=O)OC4=O)cc3)CC2F)s1 (configuration not stated)
99 to 100	CCCCOc1ccc(S(=O)(=O)N2CCC(NCc3ccccc3)C2)cc1 (configuration not stated)
193 to 194	N#CCCNC(=O)c1cccc(-c2ccc3c(n2)C(Oc2ccc(Cl)cc2Cl)CC3)c1 (configuration not stated)
90 to 91	COCCOCCN1C(=O)C2(COc3cc4c(cc32)OCCO4)c2ccccc21 (configuration not stated)
226 to 227	Nc1nc(N)c(-c2cc(Cl)cc(Cl)c2Cl)c(C(F)(F)F)n1
139 to 140	CC(Cc1ccc(F)cc1)(NC(=O)CNC(=O)CN)c1ccc(F)cc1 (configuration not stated)
175 to 178	Cc1ccc(S(=O)(=O)N2CCN(S(=O)(=O)c3ccc(C)cc3)CC3CCC(CN(S(=O)(=O)c4ccc(C)cc4)CC2)O3)cc1
202 to 203	CC(=O)c1c(-c2ccc(F)cc2)[nH]c(-c2ccncc2)c1C
138 to 141	COC(=O)c1cc(-n2c(=O)c3c(n(C)c2=O)CCC3)c(F)cc1Cl
175 to 177	CC(C)[C@H](NC(=O)[C@H](Cc1ccccc1)NC(=O)OCc1ccccc1)[C@@H](O)c1c(-c2ccccc2)c1=O
82 to 85	CCOC(=O)C(C)(C)Oc1ccc(C(=O)c2ccccc2)cc1
38 to 40	BrCc1cccc(OCc2ccccc2)c1
223	CC1(C)CCC(C)(C)c2cc(-c3cc(-c4ccc(C(=O)N5CCOCC5)cc4)ccc3-c3ccccc3)ccc21
271 to 273	Cc1nnc2n1-c1ccc(N)cc1C(c1ccccc1Cl)=CC2
178 to 180	CCCCCNC(=O)Nc1ccccc1C(=O)NCC1CCN(C(c2ccccc2)c2ccccc2)CC1
132 to 135	CCOC(=O)CNC(=O)Oc1c(C)n(C)ccc1=O
110 to 112	O=C(Nc1ccc(Oc2ccnc(NC3CCC3)n2)c2ccccc12)c1cc(F)cc(N2CCOCC2)c1
214 to 216	O=C(O)c1ccncc1C(=O)c1cc(F)ccc1F
110 to 112	CNc1cnc(N(Cc2ccccc2)C(=O)OCc2ccccc2)cc1-c1ccccc1C
233	CC(C)(C)C1=NN(c2ccc(C(=O)O)cc2)C(c2ccccc2)C1 (configuration not stated)
42 to 44	CCOC(=O)Cc1cnc(C(C)(C)C)nc1Cl
161	O=CC(=C(c1ccc(F)cc1)c1ccc(F)cc1)n1cnnn1

melting point [°C]	SMILES
152 to 154	Clc1ccc(N2CCN(Cc3n[nH]c4c(Cl)cccc34)CC2)cc1
268	CCc1ccccc1NC=C1C(=O)N(c2ccc(N(S(C)(=O)=O)S(C)(=O)=O)cc2)N=C1C
93	CNC(=O)N(OC(=O)Oc1ccccc1)c1ccc(Cl)c(Cl)c1
127 to 130	CCCc1c(OCCCCCCc2cc(OC)c(OC)cc2F)ccc(C(=O)O)c1O
105 to 106	CCOc1cc(Cn2cc(CCC(=O)O)c(OCC)n2)ccc1OCc1nc(-c2ccccc2)oc1C
202 to 203	COc1cc2c(c(Cl)c1Cl)C(=O)C(c1ccc(Br)cc1)C2 (configuration not stated)
110 to 111	COc1ccc(C(C)(O)C(F)(F)F)c(CCO)c1 (configuration not stated)
152 to 154	N=C(Nc1ccc(F)cc1)Nc1ncccc1OCc1c(F)cccc1Cl
83 to 86	COCSc1nccn1-c1cccc(C(=O)CC(=O)Nc2cc(-c3ccccc3F)ccc2NC(=O)OC(C)(C)C)c1
226	O=C1Nc2ccccc2Nc2ccsc21
208 to 210	CCOC(=O)C1=C(C)NC(c2csc(C)n2)=NC1c1ccc(O)cc1 (configuration not stated)
120 to 122	C=CCOc1ccc(C(C)(C)C)cc1C(C(=O)O)c1ccccc1 (configuration not stated)
100 to 102	CC(CC(=O)c1cccc(Cl)c1)C(=O)O (configuration not stated)
133 to 135	COc1ccc(S(=O)(=O)Nc2ccccc2NC(=O)c2cccnc2Cl)cc1
54	COC(=O)CCCc1cc2cc(Cl)ccc2n1S(=O)(=O)c1ccc(S(=O)(=O)N2CCOCC2)cc1
100 to 101	COc1ccc(C(=O)c2c(F)cccc2F)cc1OC
171 to 172	CC(C)[C@H]1CC[C@H](C(=O)N[C@H](Cc2ccc(OCc3ccc(C(F)(F)F)cc3)cc2)C(=O)O)CC1
78 to 80	CC(C)N(CCC(CCN(C)C)(C(N)=O)c1ccc(F)cc1)C(C)C (configuration not stated)
198 to 200	Cc1noc([C@@H](Cc2ccccc2)NC(=O)[C@@H](Cc2ccc3ccccc3c2)NC(=O)[C@@H]2CCCN(C(=O)OC(C)(C)C)C2)n1
250 to 251	CNC(=O)c1ccc(-c2coc3ccc(-c4nnc(C)o4)cc23)c(Cl)c1
126 to 128	CC(CCOc1c(-c2ccc(S(C)(=O)=O)cc2)cnn(-c2ccc(F)c(F)c2)c1=O)C(F)(F)F (configuration not stated)
205 to 209	Cc1csc2nc(S(=O)(=O)Nc3cccc4sccc34)nn12
119 to 120	O=C(Nc1ccc(Oc2ccnc(NC3CCCC3)n2)c2ccccc12)c1cc(F)cc(N2CCOCC2)c1
125 to 126	CC(=O)C1(c2cccc(OCc3ccc4c(ccc(=O)n4C)c3)c2)CCOCC1

melting point [°C]	SMILES
38.5 to 40.5	CCCCCCOc1ccc(-c2cc(CBr)ccc2CBr)cc1
176 to 178	CSc1c(CC(=O)O)ccc2c3ccccc3n(Cc3ccc(Cl)cc3)c12
174 to 175	N#Cc1ncn2c1N(C(=O)CN1CCC(c3ccccc3)CC1)CC=C2c1cccc(C(F)(F)F)c1
92 to 93	COc1ccc2c(c1)OCC(NC(=O)c1cc(Cl)ccc1OC)C2 (configuration not stated)
88 to 91	C=C(Cc1ccc(OC)cc1)C(=O)O
> 250	O=C(O)c1cnn2c(C(F)(F)F)cc(-c3ccc(C(F)(F)F)cc3)cc12
151	CC12CCC(=O)C=C1CCC1C2CCC2(C)C(CO)CCC12 (configuration not stated)
59 to 61	COC1=C(C)C(C)(F)C(C(=O)c2ccccc2)C=C1 (configuration not stated)
120 to 122	COc1cccc(C=O)c1OS(=O)(=O)c1ccccc1
174 to 175	CCCCOc1nccc2c1C(c1ccccc1C(F)(F)F)C(C(=O)OCC)=C(C)N2 (configuration not stated)
191 to 192	O=C(C#Cc1ccc(CN2CCC(N3CCCC3)CC2)cc1)Nc1ccc(-c2ccc(Cl)cc2)cc1
233 to 235	CC1CC2(NC(=O)NC2=O)c2cc(F)ccc2O1 (configuration not stated)
283 to 287	COc1ccc(Nc2nc3cc4c(cc3[nH]2)C(C)(C)CC(=O)N4)cc1
177 to 178	COC(=O)c1ccc(-c2nc(-c3ccc(C(F)(F)F)cc3)no2)cc1
116 to 117	c1ccc(-n2c(Cn3ccnc3)nc3ccccc32)cc1
196 to 197	O=C(O)C1(C(=O)O)CCC(c2c(-c3ccccc3)[nH]c3ccccc23)CC1
113 to 114	C=CCOn1cc(C(=O)NCc2ccc(Cl)cc2)c(=O)c2ccccc21
139 to 141	CO[C@]1(c2ncc(S(=O)(=O)c3ccc(/C(C)=N/O)cc3)s2)CCO[C@@H]1C (racemic)
188 to 190	CCc1cc(-c2cccnc2)nn1-c1ccc(NC(=O)c2cccnc2)cc1
49.5 to 50.5	CC(=O)c1ccc2c(c1)CCCS2
119 to 120	CON(C)C(=O)c1c(-c2ccc(Cl)cc2)nsc1-c1ccccc1
215 to 216	CC(=O)c1c(F)cc2c(=O)c(C(=O)O)cn(CCF)c2c1F
155 to 156	CCC(=O)COc1ccc(CC2SC(=O)N(C(c3ccccc3)(c3ccccc3)c3ccccc3)C2=O)cc1 (configuration not stated)
96 to 97.5	COC(=O)c1ccc(-c2ccc(OC)c(OC)c2)cc1OC

melting point [°C]	SMILES
142 to 144	CON(C)C(=O)Nc1nnc(SCc2cccnc2)s1
> 198	CCc1c(C(=O)O)[nH]c2c1C(=O)CC(C)(C)C2
239 to 241	CC[C@H](C(=O)O)[C@H](N)C(=O)O
145 to 146	Cc1scc2c1N(C(=O)NCCN1CCC(CCCC3CCCN3C)CC1)c1ccccc1NC2=O (configuration not stated)
70 to 71	CCc1cccc(CC)c1NC(=O)CN
153 to 154	CCOC(=O)CNc1ncccc1NC(=O)c1ccc(Br)cc1
149	N#Cc1cnn2c(C(F)(F)F)cc(-c3ccc(F)cc3F)nc12
65 to 70	[N-]=[N+]=NC1CC(n2cnc3c(NC4CC4c4ccccc4)nc(N)nc32)OC1CO (configuration not stated)
138	CC(C)=CCN1[C@H](C)Cn2c(=S)[nH]c3cccc(c32)[C@@H]1C (relative stereo)
206 to 207	Cn1c(-c2ccccc2)nc(CN2CCN(c3ccc(O)cc3)CC2)cc1=O
282 to 284	Cn1cc(C2=C(c3cn(C)c4ccc([N+](=O)[O-])cc34)C(=O)NC2=O)c2ccccc21
232 to 233	O=c1nc(-c2ccc3c(n2)CCCC3)sc2ccccc12
203 to 205	CN1CCN(CC2CCCCN2CC(=O)N2c3ccccc3C(=O)Nc3cccnc32)CC1 (configuration not stated)
96 to 97	CCOC(=O)C(=O)Nc1cc(Cl)c(Cl)cc1[N+](=O)[O-]
> 280	CN1C(=O)Nc2ccccc2C12NC(=O)NC2=O (configuration not stated)
106 to 107	C(=Cc1ccccc1)C=NC1CCOc2ccccc21 (configuration not stated)
263 to 264	O=C(Nc1cc(Cl)cc(Cl)c1)Nc1ccc(Br)cc1-c1nnn[nH]1
131 to 132	CCOC(=O)[C@H](Cc1cc(O)c(O)cc1I)NC=O
> 260	Cc1nc2c(N)nc3cccnc3c2n1CC1(O)CCNCC1
124 to 125	CCCc1nn(-c2ccc(C(F)(F)F)cn2)cc1CCCOc1cc(CC(=O)O)ccc1OCC
120 to 121	COC1CCN(c2nnc(-c3ccc(C)cc3)c(-c3ccc(C)cc3)n2)CC1
78 to 80	CCCCC(O)(Cn1ccnc1)c1ccc(Cl)cc1Cl (configuration not stated)
48.5 to 49	CCOC(=O)c1ccc2ccccc2c1O

SMILES	melting point [°C]
CCCCCCN1CCC(C(=O)NCC)(c2ccccc2)CC1	92 to 94
Cc1c(F)c(N2CCNCC2)cc2c1c(=O)c(C(=O)O)cn2C1CC1	226 to 228
